Experimental findings from US6037447A, “Glycopeptide compounds” (priority 1998, dated 2000) are described below.

In test [1] the test system is Staphylococcus aureus 489. Description: Standard broth micro-dilution MIC, Staphylococcus aureus 489. Type of test: cell-based. As for the experimental part:
(§1) The minimal inhibitory concentrations (MICs) were determined using a standard broth micro-dilution assay.

Test [2] deals with Staphylococcus aureus 446. As to the kind of experiment: Standard broth micro-dilution MIC, Staphylococcus aureus 446. Type of test: cell-based. As for the experimental part:
as §1
In general terms: In broth dilution the organism is exposed to a series of concentrations in liquid medium.

The test system of test [3] is Staphylococcus aureus SA1199A. Description: Standard broth micro-dilution MIC, Staphylococcus aureus SA1199A. The test is classed as cell-based. The protocol:
as §1

In test [4] the test system is Staphylococcus aureus X778. Description: Standard broth micro-dilution MIC, Staphylococcus aureus X778. The test is classed as cell-based. The protocol: as §1
The test system of test [5] is Enterococcus faecalis 276. As to the kind of experiment: Standard broth micro-dilution MIC, Enterococcus faecalis 276. Type of test: cell-based. As for the experimental part:
as §1

For test [6], the system named is Staphylococcus aureus 447. As to the kind of experiment: Standard broth micro-dilution MIC, Staphylococcus aureus 447. The test is classed as cell-based. As for the experimental part:
as §1

Test [7] relates to vancomycin-resistant enterococci. Description: In Vitro Activity Against Enterococci, vancomycin-resistant strains. The test is classed as cell-based. The following applies: representative vancomycin-resistant enterococci (Enterococcus faecium and Enterococcus faecalis). As for the experimental part:
as §1

For test [8], the system named is Staphylococcus aureus X400. Description: Standard broth micro-dilution MIC, Staphylococcus aureus X400. Type of test: cell-based. The protocol:
as §1

Test [9] relates to Staphylococcus aureus S13E. The test is classed as cell-based. As for the experimental part:
as §1

The test system of test [10] is Staphylococcus haemolyticus 415. As to the kind of experiment: Standard broth micro-dilution MIC, Staphylococcus haemolyticus 415. The test is classed as cell-based. As for the experimental part:
as §1

Test [11] concerns Staphylococcus aureus SA119913. Description: Standard broth micro-dilution MIC, Staphylococcus aureus SA119913. The test is classed as cell-based. The protocol:
as §1

Test [12] deals with Enterococcus gallinarum 245. As to the kind of experiment: Standard broth micro-dilution MIC, Enterococcus gallinarum 245. Type of test: cell-based. The protocol:
as §1

Test [13] has as its system Staphylococcus epidermidis 270. As to the kind of experiment: Standard broth micro-dilution MIC, Staphylococcus epidermidis 270. The test is classed as cell-based. The protocol: as §1
For test [14], the system named is Streptococcus pneumoniae P1. As to the kind of experiment: Standard broth micro-dilution MIC, Streptococcus pneumoniae P1. Type of test: cell-based. The protocol:
as §1

The test system of the next test is Enterococcus faecium 180. As to the kind of experiment: Standard broth micro-dilution MIC, Enterococcus faecium 180. The test is classed as cell-based. As for the experimental part:
as §1

Test [15] relates to Staphylococcus haemolyticus 105. Description: Standard broth micro-dilution MIC, Staphylococcus haemolyticus 105. Type of test: cell-based. The protocol: as §1
Test [16] has as its system Streptococcus pyogenes C203. Description: Standard broth micro-dilution MIC, Streptococcus pyogenes C203. The test is classed as cell-based. As for the experimental part: as §1
Test [17] deals with Staphylococcus aureus SA1199. Description: Standard broth micro-dilution MIC, Staphylococcus aureus SA1199. The test is classed as cell-based. As for the experimental part:
as §1

Test [18] concerns Staphylococcus aureus 491. As to the kind of experiment: Standard broth micro-dilution MIC, Staphylococcus aureus 491. Type of test: cell-based. The protocol:
as §1

In test [19] the test system is vancomycin-sensitive enterococci. As to the kind of experiment: In Vitro Activity Against Enterococci, vancomycin-sensitive strains. The following applies: for mean geometric MIC, Vancomycin Sensitive Strains: representative vancomycin-sensitive enterococci (Enterococcus faecium and Enterococcus faecalis). The test is classed as cell-based, Enterococcus faecium and Enterococcus faecalis. The protocol:
as §1

For test [20], the system named is Enterococcus faecalis 2041. As to the kind of experiment: Standard broth micro-dilution MIC, Enterococcus faecalis 2041. Type of test: cell-based. As for the experimental part:
as §1

Test [21] relates to Enterococcus faecium 180-1. Description: Standard broth micro-dilution MIC, Enterococcus faecium 180-1. Type of test: cell-based. As for the experimental part: as §1
Another test has as its system Escherichia coli EC14. Description: Standard broth micro-dilution MIC, Escherichia coli EC14. Type of test: cell-based. As for the experimental part: as §1

Values after ≈ are worked out from the molar mass of the structure shown.

Broadly, the MIC is the least concentration at which growth counts as inhibited. For the compound “1,3-phenylene-bis-[(oxy-1,3-n-propyleneoxy-4,1-phenylene)]-methylene]-bis-[vancomycin] [Compound 12]”, the MIC was 2 µg/mL in test [1]; 8 µg/mL in test [2]; 1 µg/mL in test [3]; 2 µg/mL in test [4]; 1 µg/mL in test [5]; 8 µg/mL in test [6]. For the same compound, the minimum inhibitory concentration (MIC) worked out at 2 µg/mL in test [8]; 4 µg/mL in test [9]; 4 µg/mL in [10]; 4 µg/mL in test [11]; 0.06 µg/mL in test [12]; 4 µg/mL in test [13]. Moreover, the minimum inhibitory concentration (MIC) in [14] is 0.06 µg/mL; against Enterococcus faecium 180, at most 0.06 µg/mL; in [15], 4 µg/mL; in test [16], 0.06 µg/mL; in [17] it was 4 µg/mL; in test [18], 2 µg/mL. This compound also returned a minimal inhibitory concentration (MIC) in [20] of 0.25 µg/mL. For the same compound, in test [7], the “mean geometric MIC, Vancomycin Resistant Strains” value came to 4.0 µg/mL. For the same compound, the “mean geometric MIC, Vancomycin Sensitive Strains” value in test [19] came to 0.66 µg/mL.
On to “1,3-phenylenebis[oxy-1,3-n-propylene-oxy-4,1-phenylene)methylene]bis-[A82846B,(3-dimethylaminopropyl)-amide] [Compound 71]”, for which the MIC in test [1] worked out at 2 µg/mL; in [2], 4 µg/mL; in [3] it was 2 µg/mL; in test [4], 2 µg/mL; in test [5], 1 µg/mL; in test [6], 4 µg/mL. Also, the MIC in test [8] amounted to 4 µg/mL; in test [9], 2 µg/mL; in test [10] it was 2 µg/mL; in test [11] it was 2 µg/mL; in test [21], 0.5 µg/mL; in test [12], 0.5 µg/mL. Also, the minimum inhibitory concentration (MIC) is 1 µg/mL in test [13]; 0.5 µg/mL in test [14]; 2 µg/mL against Enterococcus faecium 180; 2 µg/mL in test [15]; 0.5 µg/mL in [16]; 4 µg/mL in test [17]. The values for the MIC in test [18] and in [20] were 2 µg/mL and 0.5 µg/mL, respectively. In addition, the “mean geometric MIC, Vancomycin Resistant Strains” value in test [7] amounted to 2.4 µg/mL. The “mean geometric MIC, Vancomycin Sensitive Strains” value in test [19] amounted to 0.38 µg/mL.
Regarding “5-n-pentyl-1,3-phenylene-bis[(oxy-1,3-n-propyleneoxy-4,1-phenylene)methylene]-bis-[vancomycin] [Compound 61]”, the minimum inhibitory concentration (MIC) in test [1] is 4 µg/mL; in test [2], 8 µg/mL; in [3], 1 µg/mL; in [4], 4 µg/mL; in [5] it was 2 µg/mL; in test [6], 16 µg/mL. For the same compound, the MIC in [8] came to 8 µg/mL; in test [9], 16 µg/mL; in [10], 8 µg/mL; in test [11], 16 µg/mL; in test [21] it was 0.5 µg/mL; in [12], 1 µg/mL. The minimal inhibitory concentration (MIC) in test [13] was determined as 4 µg/mL; in test [14], 2 µg/mL; against Enterococcus faecium 180, 1 µg/mL; in test [15] it was 1 µg/mL; in test [16], 1 µg/mL; in test [17] it was 8 µg/mL. Further, the MIC in [18] and in test [20] was 2 µg/mL throughout. Moreover, in [7], the “mean geometric MIC, Vancomycin Resistant Strains” value was 2 µg/mL. For the same compound, the “mean geometric MIC, Vancomycin Sensitive Strains” value in [19] was 1.2 µg/mL.
`CN[C@H](CC(C)C)C(=O)N[C@H]1C(=O)N[C@@H](CC(N)=O)C(=O)N[C@H]2C(=O)N[C@H]3C(=O)N[C@H](C(=O)N[C@H](C(=O)O)c4cc(O)cc(O)c4-c4cc3ccc4O)[C@H](O[C@H]3C[C@](C)(N)[C@@H](O)[C@H](C)O3)c3ccc(c(Cl)c3)Oc3cc2cc(c3O[C@@H]2O[C@H](CO)[C@@H](O)[C@H](O)[C@H]2O[C@H]2C[C@](C)(N)[C@@H](O)[C@H](C)O2)Oc2ccc(cc2Cl)[C@H]1O` [Compound A82846B, A82846B, reference compound]: the values for the MIC (in [1]; in test [3]; in the test with Enterococcus faecium 180) were at most 0.06 µg/mL, at most 0.06 µg/mL and 8 µg/mL (≈ 5.02 µM), respectively. Besides, in [7], the “mean geometric MIC, Vancomycin Resistant Strains” value stood at 29 µg/mL. Also, in [19], the “mean geometric MIC, Vancomycin Sensitive Strains” value was 0.22 µg/mL.
For `CN[C@H](CC(C)C)C(=O)N[C@H]1C(=O)N[C@@H](CC(N)=O)C(=O)N[C@H]2C(=O)N[C@H]3C(=O)N[C@H](C(=O)N[C@H](C(=O)O)c4cc(O)cc(O)c4-c4cc3ccc4O)[C@H](O)c3ccc(c(Cl)c3)Oc3cc2cc(c3O[C@@H]2O[C@H](CO)[C@@H](O)[C@H](O)[C@H]2O[C@H]2C[C@](C)(N)[C@H](O)[C@H](C)O2)Oc2ccc(cc2Cl)[C@H]1O` [Vancomycin, reference compound], the MIC is 1 µg/mL (≈ 0.69 µM) in [5]; over 64 µg/mL against Enterococcus faecium 180; 3.9 µg/mL (≈ 2.69 µM) in test [19] (read-out: mean geometric MIC, Vancomycin Sensitive Strains); 2 µg/mL (≈ 1.38 µM) in test [20].
For “N^4 -(4(3-(3-(3-(p-formylphenoxy)-n-propyloxy)phenoxy)-n-propyloxy)-benzyl)vancomycin [Compound 52]”, the “mean geometric MIC, Vancomycin Resistant Strains” value in [7] was found to be 4.8 µg/mL. The “mean geometric MIC, Vancomycin Sensitive Strains” value in test [19] came out at 0.093 µg/mL.
Take “N^4 -(4-(3-(3-(3-(p-formylphenoxy)-n-propoxy)-5-phenylphenoxy)-n-propoxy)benzyl)vancomycin [Compound 45]”: the MIC in [1] is 2 µg/mL; in test [2] it was 1 µg/mL; in [3] it was at most 0.06 µg/mL; in test [4] it was 0.5 µg/mL; in test [5], 0.25 µg/mL; in [6], 1 µg/mL. For the same compound, the MIC was over 64 µg/mL against Escherichia coli EC14; 0.5 µg/mL in test [8]; 0.5 µg/mL in test [9]; 2 µg/mL in test [10]; 0.5 µg/mL in test [11]; 0.5 µg/mL in [12]. Moreover, the MIC in test [13] worked out at 1 µg/mL; in test [14], 0.06 µg/mL; in the test on Enterococcus faecium 180, 0.5 µg/mL; in test [15] it was 0.5 µg/mL; in [16] it was 0.06 µg/mL; in [17] it was 0.5 µg/mL. Besides, the values for the minimal inhibitory concentration (MIC) in test [18] and in test [20] were 0.5 µg/mL and 0.125 µg/mL, respectively. Moreover, the “mean geometric MIC, Vancomycin Resistant Strains” value in [7] is 2.8 µg/mL. Further, the “mean geometric MIC, Vancomycin Sensitive Strains” value in test [19] stood at 0.33 µg/mL.
For “N^4 -(4-(3-(p-formylphenoxy)-n-propyloxy)benzyl)vancomycin [Compound 34]”, the MIC in [1], in test [2], in test [3], in test [4], in test [5] and in test [6] was at most 0.06 µg/mL throughout. Besides, the minimum inhibitory concentration (MIC) in [8] was at most 0.06 µg/mL; in test [9] it was at most 0.06 µg/mL; in [10], 2 µg/mL; in test [11], at most 0.06 µg/mL; in test [21], at most 0.06 µg/mL; in [12] it was 1 µg/mL. The minimal inhibitory concentration (MIC) in test [13] is 0.25 µg/mL; in [14] it was 0.06 µg/mL; in the test on Enterococcus faecium 180, 0.5 µg/mL; in [15], 0.5 µg/mL; in test [16] it was 0.06 µg/mL; in test [17] it was at most 0.06 µg/mL. Further, the minimal inhibitory concentration (MIC) in test [18] and in test [20] was at most 0.06 µg/mL each time. Also, the “mean geometric MIC, Vancomycin Resistant Strains” value in test [7] was 53 µg/mL. The “mean geometric MIC, Vancomycin Sensitive Strains” value in [19] stood at 0.87 µg/mL.
Regarding “N^4 -(4-(8-(p-formylphenoxy)-n-octyloxy)benzyl)vancomycin [Compound 40]”, the minimal inhibitory concentration (MIC) in test [2] is 0.5 µg/mL; in [3] it was at most 0.06 µg/mL; in test [4], at most 0.06 µg/mL; in test [5], 0.25 µg/mL; in test [6] it was 0.25 µg/mL; against Escherichia coli EC14 it was over 64 µg/mL. The minimum inhibitory concentration (MIC) in test [9] was 0.25 µg/mL; in test [10], 4 µg/mL; in [11] it was 1 µg/mL; in [21], at most 0.06 µg/mL; in test [12], 1 µg/mL; in [13] it was 0.25 µg/mL. Besides, the minimum inhibitory concentration (MIC) in test [14] is 0.06 µg/mL; against Enterococcus faecium 180, 1 µg/mL; in [15] it was 1 µg/mL; in [16], 0.06 µg/mL; in test [17], 0.25 µg/mL; in test [18] it was at most 0.06 µg/mL. In addition, the MIC in [20] stood at 0.125 µg/mL. In test [7], the “mean geometric MIC, Vancomycin Resistant Strains” value is 11.3 µg/mL. Further, in test [19], the “mean geometric MIC, Vancomycin Sensitive Strains” value worked out at 0.19 µg/mL.
